# From patent publication US8921328B2, “E-selectin antagonists” (GlycoMimetics, Inc., priority 2010, dated 2014)
# Target: T1, E-selectin/IgG construct (Homo sapiens, UniProt P16581)
# T1 construct: fused on or other part: IgG Fc part (human, since it is captured by goat anti-human Fc antibody), fused on as a capture handle
# T1 sequence (P16581 22-175 limits assumed): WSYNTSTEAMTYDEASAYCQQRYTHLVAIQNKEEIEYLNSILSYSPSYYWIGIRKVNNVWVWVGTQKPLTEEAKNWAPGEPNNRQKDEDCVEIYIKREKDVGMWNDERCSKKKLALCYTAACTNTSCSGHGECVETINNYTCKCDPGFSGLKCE
# Experiment: BIAcore surface plasmon resonance (SPR)-based assay, serial dilutions of the ligand (absolute KD)
# Conditions: twofold serial dilutions, 600 s association/600 s dissociation, HBS-P + 20 mm calcium + DMSO 5% v/v, read-out: KD values (absolute binding affinities)
# Experimental: The biological evaluation of the E-selectin antagonists was performed by surface plasmon resonance (SPR). For this purpose, an E-selectin/IgG construct was captured onto a BIAcore chip surface bearing covalently linked goat anti-human Fc specific antibody (Biacore Life Sciences, Uppsala, Sweden).
# Evaluation of E-Selectin Antagonists with Surface Plasmon Resonance (SPR)-Based Assay
# Ten twofold serial dilutions of the ligand were non-randomly injected. The E-selectin antagonists were diluted in running buffer (HBS-P supplemented with […] calcium and DMSO 5% v/v). Antagonist dilutions were injected with a 600 s association time and 600 s dissociation time at a flow rate of 20 μL/min over the reference and the active flow cell. […] In addition, to prevent the presence of residual traces of compound, a blank injection was performed between each injection of ligand dilution. DMSO calibration and double referencing were applied to correct bulk effects and other systematic artifacts (subtraction of reference surface and blank injection).
compound,measurement,value
"CC1CC(C(=O)NCCCN2CCN(CCCn3ccc4cc([N+](=O)[O-])ccc43)CC2)C[C@@H](O[C@@H]2OC(CO)[C@H](O)C(O[C@@H](CC3CCCCC3)C(=O)O)C2OC(=O)c2ccccc2)C1O[C@@H]1OC(C)[C@@H](O)C(O)C1O (stereo partly drawn) [Product 82, (1R,3R,4R,5S)-3-[2-O-Benzoyl-3-O-((1S)-1-carboxy-2-cyclohexyl-ethyl)-(β-D-galactopyranosyl)oxy]-4-[(α-L-fucopyranosyl)oxy]-5-methyl-N-(3-{1-[3-(5-nitro-1H-indol-1-yl)propyl]piperazin-1-yl}propyl)cyclohexanecarboxamide]",Kd,110 nM
